Assay results reported in ChEMBL document CHEMBL1123344, “N-Substituted sulfonamide carbonic anhydrase inhibitors with topical effects on intraocular pressure” (J Med Chem, 1986).

Assays:
Oryctolagus cuniculus [1] = test: Compound was evaluated for the intraocular pressure (IOP) in normal rabbits following topical dosing after 110 min; type: functional, Eye
Carbonic anhydrase [2] = target: Carbonic anhydrase
Oryctolagus cuniculus [3] = test: Compound was evaluated for the intraocular pressure (IOP) in normal rabbits following topical dosing after 30 min; type: functional, Eye
Oryctolagus cuniculus [4] = test: Compound was evaluated for the intraocular pressure (IOP) in normal rabbits following topical dosing after 70 min; type: functional, Eye
Oryctolagus cuniculus [5] = test: Compound was evaluated for the intraocular pressure (IOP) in normal rabbits following topical dosing after 60 min; type: functional, Eye
Oryctolagus cuniculus [6] = test: Compound was evaluated for the intraocular pressure (IOP) in normal rabbits following topical dosing after 90 min; type: functional, Eye
Oryctolagus cuniculus [7] = test: Compound was evaluated for the intraocular pressure (IOP) in normal rabbits following topical dosing after 120 min; type: functional, Eye
Oryctolagus cuniculus [8] = test: Compound was evaluated for the intraocular pressure (IOP) in normal rabbits following topical dosing after 10 min; type: functional, Eye
Oryctolagus cuniculus [9] = test: Compound was evaluated for the intraocular pressure (IOP) in normal rabbits following topical dosing after 80 min; type: functional, Eye
Oryctolagus cuniculus [10] = test: Compound was evaluated for the intraocular pressure (IOP) in normal rabbits following topical dosing after 100 min; type: functional, Eye
Oryctolagus cuniculus [11] = test: Compound was evaluated for the intraocular pressure (IOP) in normal rabbits following topical dosing after 40 min; type: functional, Eye
Oryctolagus cuniculus [12] = test: Compound was evaluated for the intraocular pressure (IOP) in normal rabbits following topical dosing after 20 min; type: functional, Eye
Oryctolagus cuniculus [13] = test: Compound was evaluated for the intraocular pressure (IOP) in normal rabbits following topical dosing after 50 min; type: functional, Eye
Carbonic anhydrase [14] = test: Compound was evaluated for the inhibition of Carbonic anhydrase (Competitive); type: protein assay
[15] = buffer, pH 7.2
Description: Solubility, pH 7.2 phosphate buffer at 32 degree C

physchem [16] = test: physchem
Description: Compound was evaluated for pKa

physchem [17] = details: octanol/pH 7.2 phosphate buffer
Description: Compound was evaluated for Octanol/pH 7.2 phosphate buffer distribution coefficient

Oryctolagus cuniculus [18] = test: Compound was evaluated for the intraocular pressure (IOP) in normal rabbits following topical dosing after 140 min; type: functional, Eye
Oryctolagus cuniculus [19] = test: Compound was evaluated for the intraocular pressure (IOP) in normal rabbits following topical dosing after 180 min; type: functional, Eye
Oryctolagus cuniculus [20] = test: Compound was evaluated for the intraocular pressure (IOP) in normal rabbits following topical dosing after 160 min; type: functional, Eye

CN(O)S(=O)(=O)c1ccc([N+](=O)[O-])cc1
IOP (Oryctolagus cuniculus [1]): -0.33 mmHg | Ki (Carbonic anhydrase [2]): 44 nM | IOP (Oryctolagus cuniculus [3]): -0.67 mmHg | IOP (Oryctolagus cuniculus [4]): -2 mmHg | IOP (Oryctolagus cuniculus [5]): -1.67 mmHg | IOP (Oryctolagus cuniculus [6]): 0.2 mmHg | IOP (Oryctolagus cuniculus [7]): -1 mmHg | IOP (Oryctolagus cuniculus [8]): 0.33 mmHg | IOP (Oryctolagus cuniculus [9]): -1.67 mmHg | IOP (Oryctolagus cuniculus [10]): -0.5 mmHg | IOP (Oryctolagus cuniculus [11]): -1.67 mmHg | IOP (Oryctolagus cuniculus [12]): -0.33 mmHg | IOP (Oryctolagus cuniculus [13]): -1.83 mmHg

CNS(=O)(=O)c1ccc([N+](=O)[O-])cc1
Ki (Carbonic anhydrase [2]): 146 nM

CNS(=O)(=O)c1nnc(NC(C)=O)s1
Ki (Carbonic anhydrase [14]): 258 nM | Solubility [15]: 0.00144 M l-1 | pKa (physchem [16]): 7.52 | logD (physchem [17]): 0.32 | Papp: 2.26 ×10⁻⁶ cm/s

CN(O)S(=O)(=O)c1ccc(Cl)cc1
Ki (Carbonic anhydrase [2]): 107 nM | IOP (Oryctolagus cuniculus [18]): -0.33 mmHg | IOP (Oryctolagus cuniculus [5]): -1.25 mmHg | IOP (Oryctolagus cuniculus [7]): 0.33 mmHg | IOP (Oryctolagus cuniculus [9]): 0.17 mmHg | IOP (Oryctolagus cuniculus [10]): 0.67 mmHg | IOP (Oryctolagus cuniculus [19]): -0.25 mmHg | IOP (Oryctolagus cuniculus [11]): 1 mmHg | IOP (Oryctolagus cuniculus [12]): 0.17 mmHg | IOP (Oryctolagus cuniculus [20]): -0.25 mmHg

CNS(=O)(=O)c1ccc(Cl)cc1
Ki (Carbonic anhydrase [2]): 584 nM | Solubility [15]: 0.0208 M l-1 | pKa (physchem [16]): 11 | logD (physchem [17]): 1.92 | Papp: 65.1 ×10⁻⁶ cm/s

NS(=O)(=O)c1ccc(Cl)cc1 [P-CHLOROBENZENESULFONAMIDE]
Solubility [15]: 0.0223 M l-1 | pKa (physchem [16]): 9.95 | logD (physchem [17]): 1.24 | Papp: 54.7 ×10⁻⁶ cm/s
